A short description of data set [1]: octanol/water partition (K octanol/water). The class given is physicochemical. The source says: (§1) Lobinaline and the “mono”-N-oxide were separated from plant and culture material by acid/base extraction, but the bi-N-oxide was derived from lobinaline using 3-chloroperbenzoic acid. All these compounds were separated by column chromatography with identity and purity confirmed by LC/MS.

A short description of the next data set: aqueous solubility. The class given is physicochemical.
Description: Lobinaline (FIG. 1), was isolated from plant material and identified as the first-known binitrogenous plant alkaloid more than 80 years ago [27]. The applicants began to test its pharmacological activity after identifying Lobelia cardinalis as a novel source of nicAChR activity by high throughput screening in 2005 [26]. This plant species has no history of abuse, or traditional medicinal use of relevance to SUDs. […] These actions support lobinaline as a lead compound for the treatment of SUDs, particularly alcohol and nicotine use disorders. […] Lobinaline also appears to have appropriate pharmacokinetics and low toxicity. […] Conversely, this makes it a good test of the ability of target-directed evolution to generate novel inhibitors of the DAT in mutant plant cells.
as §1

Data set [2] deals with rat striatal synaptosomes. In words: [3H]DA release from rat striatal synaptosomes. The class given is biochemical. The settings on record: preloaded synaptosomes; 10-500 uM tested; 30 min at 37° C.
Description: (§2) [3H]DA release from rat striatal synaptosomes: Synaptosomes preloaded with [3H]DA were exposed to lobinaline (10-500 uM), 30 min @ 37° C.). [3H]DA release was calculated by subtraction of activity following drug treatment from activity in the absence of drug.
Data set [3] concerns the target nicAChRs. In words: displacement of [3H]epibatidine from rat brain homogenates. The format is binding. On the technique in general: Displacement assays read how much labelled ligand stays bound in the presence of the test substance.
The target of a further data set is T1, alpha4/beta2 nicAChR (Rattus norvegicus, UniProt P09483+P12390).
T1 construct: from tissue
T1 sequence (P09483 31-630): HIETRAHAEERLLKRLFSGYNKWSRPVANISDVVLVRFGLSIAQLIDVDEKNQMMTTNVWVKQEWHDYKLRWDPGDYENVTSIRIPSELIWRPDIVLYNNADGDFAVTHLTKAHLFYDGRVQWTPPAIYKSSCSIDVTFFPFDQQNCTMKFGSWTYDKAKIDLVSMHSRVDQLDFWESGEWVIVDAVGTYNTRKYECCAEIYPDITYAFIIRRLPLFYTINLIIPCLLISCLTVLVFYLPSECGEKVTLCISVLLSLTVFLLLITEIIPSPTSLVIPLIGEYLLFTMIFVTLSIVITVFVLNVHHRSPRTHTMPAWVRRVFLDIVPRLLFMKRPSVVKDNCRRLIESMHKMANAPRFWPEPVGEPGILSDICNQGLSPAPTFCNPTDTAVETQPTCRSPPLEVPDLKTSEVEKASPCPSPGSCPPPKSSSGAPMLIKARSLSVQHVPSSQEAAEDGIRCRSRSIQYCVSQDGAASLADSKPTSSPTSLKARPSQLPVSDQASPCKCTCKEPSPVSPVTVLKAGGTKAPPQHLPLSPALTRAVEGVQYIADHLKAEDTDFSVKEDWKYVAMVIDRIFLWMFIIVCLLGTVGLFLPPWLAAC
T1 sequence (P12390 25-500): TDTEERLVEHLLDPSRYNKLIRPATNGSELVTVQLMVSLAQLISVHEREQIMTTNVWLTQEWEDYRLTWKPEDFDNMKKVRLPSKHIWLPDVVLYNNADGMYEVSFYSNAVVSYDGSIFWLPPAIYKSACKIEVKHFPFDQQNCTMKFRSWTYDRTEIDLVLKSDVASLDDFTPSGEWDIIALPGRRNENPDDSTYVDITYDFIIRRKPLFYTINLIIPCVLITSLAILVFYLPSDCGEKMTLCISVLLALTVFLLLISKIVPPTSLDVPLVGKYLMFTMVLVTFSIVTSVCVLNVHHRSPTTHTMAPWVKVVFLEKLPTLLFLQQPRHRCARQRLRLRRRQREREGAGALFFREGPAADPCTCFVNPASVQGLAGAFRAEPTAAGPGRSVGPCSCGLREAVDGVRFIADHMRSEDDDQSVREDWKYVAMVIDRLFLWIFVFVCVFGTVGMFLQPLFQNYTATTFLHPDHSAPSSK
In words: displacement of beta2-selective radioligand [3H]cytisine. The format is binding.

Another data set deals with T2, alpha7-nicAChR (Rattus norvegicus, UniProt Q05941).
T2 construct: from tissue
T2 sequence (Q05941 23-502): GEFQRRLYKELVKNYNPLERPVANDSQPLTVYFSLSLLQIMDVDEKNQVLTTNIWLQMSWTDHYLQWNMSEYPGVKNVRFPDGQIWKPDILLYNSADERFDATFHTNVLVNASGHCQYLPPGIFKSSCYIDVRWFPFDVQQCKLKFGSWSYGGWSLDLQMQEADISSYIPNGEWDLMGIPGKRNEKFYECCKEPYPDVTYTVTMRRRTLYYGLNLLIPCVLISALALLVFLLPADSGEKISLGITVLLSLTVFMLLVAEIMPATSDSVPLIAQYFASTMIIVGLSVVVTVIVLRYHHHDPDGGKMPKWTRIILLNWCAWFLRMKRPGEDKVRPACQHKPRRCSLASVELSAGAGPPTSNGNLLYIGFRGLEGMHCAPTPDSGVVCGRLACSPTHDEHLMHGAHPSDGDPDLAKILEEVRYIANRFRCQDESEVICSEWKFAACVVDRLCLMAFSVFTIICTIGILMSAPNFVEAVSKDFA
In words: displacement of [3H]-methyllycaconitine. The format is binding. The conditions noted are these: alpha7-nicAChR selective radioligand.

The subject of the next data set is nicAChR. The data set is described as follows: 45Ca2+ entry into SHSY5Y cells. The class given is cell-based. The conditions noted are these: conclusion from 45Ca2+ entry. The source says: Effects of lobinaline and nicotine on ^45Ca^2+ entry into SHSY5Y cells: nicAChR function can be evaluated semi-quantitatively in this cell line by measuring ^45Ca^2+ entry in response to nicotine. […] The lobinaline N-oxides have not yet been tested in this system.

Data set [4] relates to nicAChRs. The data set is described as follows: [3H]DA release from superfused rat striatal slices. The class given is cell-based. The settings on record: 100 uM superfused before nicotine. As for the experimental part: Effects of lobinaline and nicotine on [3H]DA release from superfused rat striatal slices (ref 5): rat brain striatal slices were incubated with [3H]DA for 30 min at […] before transfer to superfusion chambers. […] To evaluate the role of nicAChRs, striatal slices preloaded with [3H]-DA were pretreated with the nicAChR antagonist mecamylamine (10 μM) prior to superfusion of lobinaline (100 μM). […] With the data above from SHSY5Y cells, this supports a partial agonist action of lobinaline at nicAChRs. The N-oxides have not yet been tested in this system. Lobinaline has weak agonist effects on nicAChRs, but also has as yet unquantified antagonist effects (i.e. it acts as a partial agonist at nicAChRs).

Data set [5] can be described thus: conditioned place preference (abuse potential). The format is in vivo, SD rats. The source says: In conditioned place preference a chamber with distinct cues is repeatedly paired with administration of the test drug. A second chamber is repeatedly paired with a control injection. After conditioning, a test phase allows the rat to move between the chambers. If a drug is “rewarding” (i.e. has abuse potential), the rat spends more time in the drug-associated chamber. If it is aversive, the opposite result is obtained.
Methods: 6 male and 6 female SD rats were used for each drug and dose. Test drugs (5 or 25 mg/kg lobinaline, or 25 mg/Kg of lobinaline bi-N-oxide S.C) were paired with the “less preferred” compartment (standard for drugs that may be weakly reinforcing) for 20 minutes. On the next day, rats received a control (DMSO/saline) injection and were placed in the preferred chamber. After three repeated pairings (test and control), the subjects were given access to both chambers and the time spent in each compartment was recorded and scored by an observer blind to treatment. Analysis was by two way ANOVA with post hoc Bonnferoni with significance set at p<0.05. Results. Most animals spent most of the test period in the compartment originally preferred in the drug-free state, and there were no significant differences between drug and vehicle controls.

Data set [6] is described as follows: Drinking in the dark model of binge drinking. The class given is in vivo, C57Bl/6J mice. The settings on record: 25 mg/Kg SC. As for the experimental part:
“Drinking in the dark” is a model for binge drinking in which C57Bl/6J mice are given limited access to alcohol during their dark cycle. With repeated daily access, mice will voluntarily drink to blood alcohol levels above 150 mg/dl. Lobeline reduces alcohol consumption in this model and it has predictive validity in that both naltrexone and acamprosate are active.
Methods: 8 male and 8 female mice were used for each of these studies and scoring was by an observer blind to treatment. Statistical analysis was by ANOVA followed by Bonnferoni posthoc with significance at p<0.05.

The target of data set [7] is T3, DAT (Rattus norvegicus, UniProt P23977). In words: [3H]DA uptake into rat striatal synaptosomes. The format is biochemical. The arrangement: from tissue; host or cells: rat striatum (synaptosomes; homogenate). The settings on record: compound added 15 min before [3H]DA, 30 min at 37° C, read-out: IC50, inhibition of [3H]-DA uptake.
T3 sequence (P23977 whole entry): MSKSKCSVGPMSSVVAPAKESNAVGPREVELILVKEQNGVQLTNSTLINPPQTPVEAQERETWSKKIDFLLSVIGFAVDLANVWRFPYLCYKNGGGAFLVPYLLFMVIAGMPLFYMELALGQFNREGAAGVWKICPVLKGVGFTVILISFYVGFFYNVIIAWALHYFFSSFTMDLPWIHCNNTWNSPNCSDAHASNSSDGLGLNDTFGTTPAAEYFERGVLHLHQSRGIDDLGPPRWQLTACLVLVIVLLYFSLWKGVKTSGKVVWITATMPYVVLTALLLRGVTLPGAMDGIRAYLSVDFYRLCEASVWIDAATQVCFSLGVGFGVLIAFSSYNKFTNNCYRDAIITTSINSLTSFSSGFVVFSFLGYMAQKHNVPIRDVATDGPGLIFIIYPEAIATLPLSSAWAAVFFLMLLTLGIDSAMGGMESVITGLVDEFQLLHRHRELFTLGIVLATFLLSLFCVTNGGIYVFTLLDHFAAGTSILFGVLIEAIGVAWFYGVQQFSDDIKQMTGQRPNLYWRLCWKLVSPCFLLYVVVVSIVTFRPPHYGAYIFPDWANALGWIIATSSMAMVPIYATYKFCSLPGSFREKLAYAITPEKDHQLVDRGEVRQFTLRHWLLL
Description: Lobinaline or the N-oxides were added 15 min before addition of [3H]DA. Synaptosomal uptake of [3H]DA was measured after 30 min incubation at 37° C.
Data set [8] deals with T3, DAT. In words: [3H]GBR 12935 binding to rat striatal homogenate. The arrangement: from tissue; host or cells: rat striatum (synaptosomes; homogenate).
Description: as §2
Data set [9] deals with T3, DAT. In words: dopamine uptake in striatum of isoflurane-anesthetized rats by in vivo electrochemistry, Examples 19-20. The arrangement: DA clearance in striatum and nucleus accumbens of urethane-anesthetized SD rats; from tissue; host or cells: striatum / nucleus accumbens of living anesthetized SD rats; species or system SD rats. As for the experimental part:
After obtaining reproducible signals for locally applied DA (50-75 nl, 200 μM) to produce a control DA peak height below 1 uM, vehicle or drug was locally applied slowly over 10-30 sec (˜500 nl 250 μM), then 60 sec later the next application of DA was performed, with subsequent DA applications at 5-min intervals for 25 min. […] The DA kinetic data from each animal were analyzed using FAST software (Quanteon, LLC, Nicholasville KY USA). […] These parameters were compared between pre- and post-drug application by one-way ANOVA with Tukey's post hoc analysis, with significance assigned at p<0.05.

This is an account of results in patent US12539298B2, “Lobinaline N-oxides as positive allosteric modulators of the dopamine transporter with potential value in the treatment of substance abuse disorders” (University of Kentucky Research Foundation, priority 2019, dated 2026).

The Ki is a measure of affinity in units of concentration, obtained from inhibition or displacement. By IC50 is commonly meant the concentration at which inhibition is half-maximal. Take `CN1CCCC2C(c3ccccc3)C(C3=NCCCC3)C(c3ccccc3)CC21` (stereo not drawn) [lobinaline]: the “K octanol/water (Ko/w)” value in [1] came to 4.8. In “aqueous solubility”, the aqueous solubility result is reported as “very low aqueous solubility”. Moreover, the “concentration causing significant release of [3H]DA” value in [2] was 500 µM. Moreover, the Ki on nicAChRs [3] was determined as 16000 nM; on alpha4/beta2 nicAChR, 1100 nM; at alpha7-nicAChR, 15000 nM; at DAT [8] (read-out: Ki, displacement of [3H]GBR 12935), 2540 nM. In the data set with nicAChRs [3], the “character of [3H]epibatidine displacement” value was “monophasically displaced”. The “mode of action at nicAChRs” value in the data set with nicAChR was “weak partial agonist”. Further, the “fractional [3H]DA release induced by 10 uM nicotine after test substance” value in the data set with nicAChRs [4] was “completely prevented”. In addition, the figures for the overt toxicity result in [5] (after 3 repeated drug administrations) and in data set [6] were “no signs of overt toxicity” and “neither compound produced overt toxicity”, respectively. Further, in data set [5] (lobinaline 5 or 25 mg/kg, bi-N-oxide 25 mg/Kg S.C), the “sedation or locomotor activation” value is recorded as “no sedation or locomotor activation”. The “conditioned place preference or aversion” value in data set [5] (lobinaline 5 or 25 mg/kg, bi-N-oxide 25 mg/Kg S.C, three pairings) is reported as “neither lobinaline nor the lobinaline bi-N-oxide produced conditioned place preference or aversion”. Besides, in data set [6], the “food or water intake” value is “no reduction in food or water intake”. For the same compound, the “inhibition of alcohol consumption” value in data set [6] (males and females) is around 40%. Besides, the IC50 at DAT [7] stood at 359 nM. For the same compound, the “extent of displacement of [3H]GBR 12935” value on DAT [8] is listed as “completely displaced”. At DAT [9] (any brain region, n=8-36), the “release of endogenous DA” value was “Neither lobinaline nor its N-oxides ever caused release of endogenous DA”. At DAT [9] (relative to % control), the “effect on DA clearance parameters” value is given as “small, but significant, reduction in all DA clearance parameters”. The “effect on amplitude of the DA signal” value on DAT [9] (single local application ~500 nl 250 μM, striatum, FIGS. 10, 11) was “transient, a non-significant decrease in amplitude”.
